According to ChEMBL document CHEMBL3875150, “Biological evaluation of some new N-(2,6-dimethoxypyrimidinyl) thioureido benzenesulfonamide derivatives as potential antimicrobial and anticancer agents” (Eur J Med Chem, 2016):
Values after ≈ are worked out from the molar mass of the structure shown.

Tests used:
Candida albicans [1] = assay: Antifungal activity against Candida albicans RCMB 005036 after 24 to 48 hrs by agar well diffusion method; format: functional
Streptococcus pneumoniae [2] = assay: Antibacterial activity against Streptococcus pneumoniae RCMB 010010 after 24 to 48 hrs by agar well diffusion method; format: functional
Escherichia coli [3] = assay: Antibacterial activity against Escherichia coli RCMB 010052 assessed as diameter of inhibition zone at 1 mg/mL after 24 to 48 hrs by agar well diffusion method; format: functional; details: read-out: DIZ
Aspergillus fumigatus [4] = assay: Antifungal activity against Aspergillus fumigatus RCMB 002568 assessed as diameter of inhibition zone at 1 mg/mL after 48 hrs by agar well diffusion method; format: functional; details: RCMB 002568, 48 h, read-out: DIZ
Bacillus subtilis [5] = assay: Antibacterial activity against Bacillus subtilis RCMB 010067 assessed as diameter of inhibition zone at 1 mg/mL after 24 to 48 hrs by agar well diffusion method; format: functional; details: read-out: DIZ
Pseudomonas aeruginosa [6] = assay: Antibacterial activity against Pseudomonas aeruginosa RCMB 010043 assessed as diameter of inhibition zone at 1 mg/mL after 24 to 48 hrs by agar well diffusion method; format: functional; details: read-out: DIZ
Aspergillus fumigatus [7] = assay: Antifungal activity against Aspergillus fumigatus RCMB 002568 after 24 to 48 hrs by agar well diffusion method; format: functional
Candida albicans [8] = assay: Antifungal activity against Candida albicans RCMB 005036 assessed as diameter of inhibition zone at 1 mg/mL after 24 to 48 hrs by agar well diffusion method; format: functional; details: read-out: DIZ
Streptococcus pneumoniae [9] = assay: Antibacterial activity against Streptococcus pneumoniae RCMB 010010 assessed as diameter of inhibition zone at 1 mg/mL after 24 to 48 hrs by agar well diffusion method; format: functional; details: read-out: DIZ
Bacillus subtilis [10] = assay: Antibacterial activity against Bacillus subtilis RCMB 010067 after 24 to 48 hrs by agar well diffusion method; format: functional
Escherichia coli [11] = assay: Antibacterial activity against Escherichia coli RCMB 010052 after 24 to 48 hrs by agar well diffusion method; format: functional
Pseudomonas aeruginosa [12] = assay: Antibacterial activity against Pseudomonas aeruginosa RCMB 010043 after 24 to 48 hrs by agar well diffusion method; format: functional
MCF7 [13] = assay: (§1) Cytotoxicity against human MCF7 cells assessed as decrease in cell viability after 24 hrs by MTT assay; format: functional, cell-based
[14] = as §1; format: functional, cell-based; details: MCF7, 24 h
MCF7 [15] = assay: Potency index, ratio of 5-fluorouracil IC50 to test compound IC50 for human MCF7 cells; format: functional

MIC (Candida albicans [1]) | MIC (Streptococcus pneumoniae [2]) | MIC (Aspergillus fumigatus [7]) | MIC (Bacillus subtilis [10]) | MIC (Escherichia coli [11]) | MIC (Pseudomonas aeruginosa [12]) | SMILES | zone of inhibition at 1000 µg/mL (Escherichia coli [3]) | zone of inhibition at 1000 µg/mL (Aspergillus fumigatus [4]) | zone of inhibition at 1000 µg/mL (Bacillus subtilis [5]) | zone of inhibition at 1000 µg/mL (Pseudomonas aeruginosa [6]) | zone of inhibition at 1000 µg/mL (Candida albicans [8]) | zone of inhibition at 1000 µg/mL (Streptococcus pneumoniae [9]) | Activity (MCF7 [13]) | IC50 [14] | Ratio IC50 (MCF7 [15])
3.9 µg/mL (≈ 7.35 µM) | 1.95 µg/mL (≈ 3.67 µM) | 1.95 µg/mL (≈ 3.67 µM) | 0.98 µg/mL (≈ 1.85 µM) | 0.98 µg/mL (≈ 1.85 µM) | 250 µg/mL (≈ 471 µM) | COc1cc(NS(=O)(=O)c2ccc(NC(=S)Nc3nc4cc(C)c(C)cc4s3)cc2)nc(OC)n1 | 26.3 mm | 23.3 mm | 25.3 mm | 10.3 mm | 21.4 mm | 22.7 mm | Dose-dependent effect | 93.9 µg/mL (≈ 177 µM) | 
125 µg/mL (≈ 235 µM) | 7.81 µg/mL (≈ 14.7 µM) | 7.81 µg/mL (≈ 14.7 µM) | 7.81 µg/mL (≈ 14.7 µM) | 62.5 µg/mL (≈ 117 µM) | 500 µg/mL (≈ 939 µM) | COc1cc(NS(=O)(=O)c2ccc(NC(=S)Nc3nc4c(OC)cccc4s3)cc2)nc(OC)n1 | 16.2 mm | 16.4 mm | 18.3 mm | 8.9 mm | 13.2 mm | 17.8 mm | Dose-dependent effect | 47.6 µg/mL (≈ 89.4 µM) | 
125 µg/mL (≈ 230 µM) | 15.6 µg/mL (≈ 28.8 µM) | 125 µg/mL (≈ 230 µM) | 7.81 µg/mL (≈ 14.4 µM) | 62.5 µg/mL (≈ 115 µM) | 500 µg/mL (≈ 921 µM) | COc1cc(NS(=O)(=O)c2ccc(NC(=S)NC3CCN(Cc4ccccc4)CC3)cc2)nc(OC)n1 | 16.3 mm | 14.2 mm | 18.4 mm | 8.2 mm | 12.7 mm | 17.3 mm | Dose-dependent effect | 1.72 µg/mL (≈ 3.17 µM) | 3
3.9 µg/mL (≈ 8.13 µM) | 1.95 µg/mL (≈ 4.07 µM) | 3.9 µg/mL (≈ 8.13 µM) | 0.98 µg/mL (≈ 2.04 µM) | 0.98 µg/mL (≈ 2.04 µM) | 500 µg/mL (≈ 1040 µM) | COc1cc(NS(=O)(=O)c2ccc(NC(=S)Nc3cc(=O)[nH]c(=O)[nH]3)cc2)nc(OC)n1 | 24.3 mm | 21.3 mm | 26.1 mm | 8.5 mm | 20.1 mm | 22.3 mm | Dose-dependent effect | 37.3 µg/mL (≈ 77.8 µM) | 
